Assay results taken from patent US20250025451A1, “TREATMENT OF CANCER WITH KDM4 INHIBITORS” (Celgene Corporation, priority 2021, published 2025).

How the values were obtained:
[1] = tested on: T035C patient-derived colon cancer organoid model; experiment: organoid colony formation assay, T035C; type: cell-based, human
Experimental: (§1) The IC50 values for Compound 1 inhibition of colony formation and viability were determined for the patient-derived colon cancer organoid models: SU60, T002C, SU62, SU34, SU103, T03SC, and SU106, patient-derived pancreatic cancer organoid models PA016SF, PA0143F, T016P, and T028P, and a patient-derived breast cancer organoid model FS5S3.
(§2) Colony formation and viability assays were performed in multiwell plates seeded with organoids using an in vitro culture system composed of a Matrigel layer, media containing a defined set of growth factors, and co-culture with Wnt3 A-secreting mouse embryonic fibroblasts. Assays were initiated by adding either DMSO as a negative control, or an inhibitor panobinostatat 100×IC50 concentration as a positive control, or serially diluted Compound 1. The cultures were incubated for 168 or 144 hours after which the number of viable organoids in each test well was assessed respectively using one of two detection methods: CTG or staining with calcein-AM followed by imaging and colony counting. Colony count or viability of cells treated with compound 1 was expressed as a percent of the negative control. Aggregated Percent of Control values were plotted against the corresponding Compound 1 concentration and the absolute IC50 value was determined from a non-linear regression curve as the concentration where inhibition was 50% of the control.

[2] = tested on: PA0165F patient-derived pancreatic cancer organoid model; experiment: organoid colony formation and viability assay, PA0165F; type: cell-based, human
Experimental: as §1, §2

[3] = tested on: COH70 patient-derived triple negative breast cancer xenograft; experiment: in vivo efficacy, COH70 patient-derived triple negative breast cancer xenograft model; conditions: COH70 TNBC PDX; for % TGI: Day 36; for Median Tumor Volumes Diff.: Day 36 minus Day 1
Experimental: The therapeutic in vivo efficacy of Compound 1 was evaluated in SU60 colorectal cancer, KYSE-150 esophageal cancer, COH70 triple-negative breast cancer, GXA-3036 gastric adenocarcinoma and OCI-LY19 Diffuse Large B-Cell Non-Hodgkin's Lymphoma xenograft models. In all studies, efficacy was determined based on percent tumor growth inhibition (TGI), differences in mean tumor growth, and statistical assessment of differences in net tumor volume distributions on the day of TGI analysis between control and treated animals. Tolerability was assessed based on differences in mean body weights between control and treated animals over the course of the study.
The in vivo therapeutic efficacy and tolerability of Compound 1, administered orally as the free acid form in a PBS vehicle plus two equivalents of NaOH (final pH 10), was evaluated in a dose range study using the COH70 TNBC PDX model established in female NSG mice. Each mouse was inoculated subcutaneously in the abdomen with 2×10^6 COH70 tumor cells (0.2 ml) suspended in Matrigel. When the average tumor size reached ˜107 mm3, test animals were randomized into 5 groups consisting of 9 mice per group and treatments were initiated. Control mice received PBS (pH 10) vehicle PO QDx36. Treated mice received Compound 1 (dissolved in PBS+2 equivalents of NaOH, final pH 10) PO at 50, 40, 25, or 12.5 mg/kg QDx36. TGI was determined on Day 36 as (1−Difftreated/Diffcontrol)×100. Individual tumors were measured twice weekly in two dimensions using a caliper, and the tumor volumes (TV) in mm3 were calculated using the formula: TV=0.5 (l×w×h), where l, w, and h are the tumor length, width, and height in mm, respectively. Mean tumor volumes±SEM were calculated and plotted versus days of dosing (left panel). Body weights were measured twice weekly. Body weights±SEM were calculated and plotted versus days of dosing (right panel).

[4] = tested on: tumor initiating cells of SU60 xenograft tumors; experiment: functional in vivo tumorigenicity assay (limiting dilution assay); parameters: species or system mice
Experimental: The ability of Compound 1 to affect tumorigenic potential was analyzed by flow cytometry analysis of the tumorigenic cell population and functional in vivo tumorigenicity assay (limiting dilution assay).
To assess the effect of Compound 1 on tumorigenic cell population, Compound 1 was used to treat SU60 xenograft tumors. NSG female mice engrafted with SU60 cells (7 mice each group) were administered Compound 1 at 40 mg/kg PO QD×21. The day after the last dose, three tumors nearest to the mean size from each group were dissociated and the single cells were used to perform: 1) flow cytometry analysis of the tumorigenic cell population and 2) functional in vivo tumorigenicity assay (limiting dilution assay). Flow Cytometry Analysis of Tumorigenic Cell Population after Compound 1 Treatment
To study the effect of Compound 1 on tumor initiating cell (TIC) frequency in CRC tumors, we evaluated the tumorigenic potential of SU60 xenograft cells posttreatment with Compound 1 or vehicle. At the end of dosing, SU60 dissociated cells from three animals per group nearest to the mean size were injected in a limiting dilution manner into recipient NSG mice and tumor volumes were measured. The number of cells required for tumor formation was reduced in the Compound 1-treated group. The reduction in TIC frequency was 4.4-fold (FIG. 17 and Table 10). Differentiation of progenitor cells is a potential explanation for this reduction.

[5] = SU60 cells from tumors treated 40 mg/kg QD, injected into recipient NSG mice, 50 cells
[6] = SU60 cells from tumors treated 40 mg/kg QD, injected into recipient NSG mice, 500 cells
[7] = SU60 cells from tumors treated 40 mg/kg QD, injected into recipient NSG mice, 1000 cells

Q: `CC(C)c1ccc(N(C)c2ccc3c(c2)OCC[C@H]3CNc2cnccc2C(=O)O)cc1` [Compound 1, 3-({[(4R)-7-{methyl[4-(propan-2-yl)phenyl]amino}-3,4-dihydro-2H-1-benzopyran-4-yl]methyl}amino)pyridine-4-carboxylic acid] was tested. Which IC50 ([1]; Homo sapiens, T035C colorectal carcinoma model) did it give?
A: The IC50 was > 10000 nM.

Q: And the IC50 ([1]; T035C human colorectal carcinoma organoid, 144 hrs, Colony Counts)?
A: The IC50 was > 10000 nM.

Q: What about the IC50 ([2]; Homo sapiens, PA0165F pancreatic carcinoma model) of the same molecule?
A: Its IC50 is < 30 nM.

Q: And the IC50 ([2]; PA0165F human pancreatic carcinoma organoid, 144 hrs, Colony Counts)?
A: Its IC50 is 16 nM.

Q: What about the IC50 ([2]; PA0165F human pancreatic carcinoma organoid, 168 hrs, CTG) of the same molecule?
A: The IC50 was 29 nM.

Q: What about the “tolerability (dose-dependent mean body weight changes)” value ([3]; female NSG mice, 12.5-50 mg/kg PO QD x36) of the same molecule?
A: The value was “well-tolerated”.

Q: What about the “mean body weight loss” value ([3]; female NSG mice, PO QD x36, over the course of the study) of the same molecule?
A: The value was 6.5%.

Q: What about the “Median Tumor Volumes Day 36” value ([3]; female NSG mice, free acid 12.5 mg/kg PO QD x36) of the same molecule?
A: Its value is 685 mm^3.

Q: And the “Median Tumor Volumes Day 36” value ([3]; female NSG mice, free acid 25 mg/kg PO QD x36)?
A: The value was 524 mm^3.

Q: What about the “Median Tumor Volumes Day 36” value ([3]; female NSG mice, free acid 40 mg/kg PO QD x36) of the same molecule?
A: The value was 282 mm^3.

Q: What about the “Median Tumor Volumes Day 36” value ([3]; female NSG mice, free acid 50 mg/kg PO QD x36) of the same molecule?
A: Its value is 295 mm^3.

Q: What about the “% TGI” value ([3]; 12.5 mg/kg PO QD x36) of the same molecule?
A: Its value is 57%.

Q: And the “Median Tumor Volumes Diff.” value ([3]; 12.5 mg/kg PO QD x36)?
A: The value was 581 mm^3.

Q: What about the “% TGI” value ([3]; 25 mg/kg PO QD x36) of the same molecule?
A: The value was 68%.

Q: And the “Median Tumor Volumes Diff.” value ([3]; 25 mg/kg PO QD x36)?
A: The value was 424 mm^3.

Q: What about the “% TGI” value ([3]; 40 mg/kg PO QD x36) of the same molecule?
A: Its value is 86%.

Q: And the “Median Tumor Volumes Diff.” value ([3]; 40 mg/kg PO QD x36)?
A: The value was 184 mm^3.

Q: What about the “% TGI” value ([3]; 50 mg/kg PO QD x36) of the same molecule?
A: The value was 86%.

Q: And the “Median Tumor Volumes Diff.” value ([3]; 50 mg/kg PO QD x36)?
A: The value was 191 mm^3.

Q: And the “Mean Tumor Volume (50 cells)” value [4, 5]?
A: The value was 209 mm^3.

Q: What about the “Tumor Take Rate (50 cells)” value [4, 5] of the same molecule?
A: The value was 3/10.

Q: And the “Mean Tumor volume (500 cells)” value [4, 6]?
A: The value was 589 mm^3.

Q: What about the “Tumor Take Rate (500 cells)” value [4, 6] of the same molecule?
A: The value was 5/10.

Q: And the “Mean Tumor Volume (1000 cells)” value [4, 7]?
A: The value was 830 mm^3.

Q: And the “Tumor Take Rate (1000 cells)” value [4, 7]?
A: The value was 7/10.

Q: What about the “reduction in TIC frequency” value ([4]; SU60 xenograft, 40 mg/kg PO QD x21, vs vehicle) of the same molecule?
A: Its value is 4.4 fold.
